Laboratory results as given in US12029713B2, “Compositions and methods for the treatment of brain injury” (THE CHILDREN'S HOSPITAL OF PHILADELPHIA, priority 2013, dated 2024).

Experiments:
[1] = test system: fluid percussion injury mice; assay: Conditioned fear response (CFR) after fluid percussion injury, GTA oral gavage; format: in vivo, mouse; conditions: 5 mg/kg oral gavage for 5 days, CFR on day 7 (FIG. 5)
Protocol: A fluid percussion injury assay was performed. Briefly, a craniotomy was performed on anesthetized mice using a 3 mm trephine and a Luer-Hoc needle hub attached to the skull and capped. The following day, a fluid percussion injury device was employed to deliver a pulse of saline through the hub at a pressure between 1.4-2.14 atm, producing a mild to moderate percussion injury. Sham animals received all anesthesia and surgical procedures except for the fluid pulse.
Mice were allowed to recover for one day. Mice were then treated with 5 mg/kg of glyceryl triacetate (GTA) via oral gavage for 5 days. The conditioned fear response (CFR) assay was performed on day 7.

[2] = within one hour of administration; cited from earlier work

CC(=O)OCC(COC(C)=O)OC(C)=O [GTA, glyceryl triacetate]
fear response (CFR) compared to mice receiving the brain injury without treatment [1]: statistically superior
increase of acetate levels in the brain [2]: over 15 fold
